Where only a bound is given, the exact number is not on record here.

Experiment [1] has as its target T1, Cbl-b (Homo sapiens (Human), UniProt Q13191). As to the kind of experiment: Cbl-b displacement assay (Cbl-b inhibition assay), Biological Example 8. The format is binding. The following applies: 0.125 nM Cbl-b final concentration (Low); Table 8-1; read-out: Cbl-b IC50 (Low). How it is done: (§1) Candidate compounds were evaluated for their ability to bind and inhibit Cbl-b, an E3 ubiquitin-protein ligase, as evidenced by their ability to displace a fluorophore-labeled probe bound to Cbl-b.
(§2) The ability of candidate compounds to displace a known inhibitor and thereby inhibit Cbl-b activity was measured by monitoring the interaction of Cbl-b with a fluorophore-labeled probe in the presence of the candidate compound. A truncated variant of Cbl-b (UniProt number Q13191) containing residues 36-427 and an Avitag at its N-terminus was co-expressed with BirA biotin ligase and purified using a standard protocol (see Dou et al., Nature Structural and Molecular Biology 8: 982-987, 2013; Avidity LLC).
(§3) Fluorescently-labeled inhibitor probe was synthesized and tagged with BODIPY FL. Cbl-b displacement assays were performed in a 384-well plate at room temperature in a 10 μl reaction volume by pre-incubating 0.5 nM Cbl-b or 0.125 nM Cbl-b (final concentration, indicated as “High” and “Low”, respectively) in an assay buffer containing 20 mM HEPES pH 7.5, 150 mM NaCl, 0.01% Triton X-100, 0.01% BSA and 0.5 mM TCEP in the presence of a candidate compound in 1% DMSO (final concentration) for 1 hour. After incubation in the presence of the candidate compound, the plate was incubated for an additional 1 hour in the presence of an approximate EC40 binding saturation consisting of 150 nM fluorescently-labeled inhibitor probe and 2 nM Streptavidin-Terbium (Cisbio) (final concentrations). Following the 1 hour incubation, the plates were read for TR-FRET signal at 520/620 nM using an Envision plate reader (Perkin Elmer).
(§4) The resulting data for the Cbl-b activity assays were analyzed using standard methods to determine the IC50 values for the tested compounds.

The subject of experiment [2] is primary human total T-cells. Nature of the experiment: Primary human total T-cell activation: CD25 surface staining, Biological Example 9. The format is cell-based. The conditions noted are these: 48 hours, fold change over baseline; for fold induction at 0.3 µM: inhibitor 0.3 μM; for fold induction at 0.3 µM / fold induction at 3 µM: Table 9-1; for fold induction at 1 µM: inhibitor 1 μM; for fold induction at 3 µM: inhibitor 3 μM.

Experiment [3] deals with primary human total T-cells. Nature of the experiment: Primary human total T-cell activation: IL-2 secretion, Biological Example 9. The conditions noted are these: 48 hours, fold change over baseline; for fold induction at 0.3 µM: inhibitor 0.3 μM; for fold induction at 0.3 µM / fold induction at 3 µM: Table 9-1; for fold induction at 1 µM: inhibitor 1 μM; for fold induction at 3 µM: inhibitor 3 μM. The format is cell-based.

Experiment [4] deals with T1, Cbl-b. As to the kind of experiment: Cbl-b displacement assay (Cbl-b inhibition assay), Biological Example 12. The conditions noted are these: 0.125 nM Cbl-b final concentration (Low); Table 12-1; read-out: Cbl-b IC50 (Low). The format is binding. How it is done: as §1, §2, §3, §4
In experiment [5] the test system is primary human total T-cells. As to the kind of experiment: Primary human total T-cell activation: CD25 surface staining, Biological Example 13. The format is cell-based. The following applies: 48 hours, fold change over baseline; for fold induction at 0.3 µM: inhibitor 0.3 μM; for fold induction at 0.3 µM / fold induction at 3 µM: Table 13-1; for fold induction at 1 µM: inhibitor 1 μM; for fold induction at 3 µM: inhibitor 3 μM.

The subject of experiment [6] is primary human total T-cells. As to the kind of experiment: Primary human total T-cell activation: IL-2 secretion, Biological Example 13. The format is cell-based. The conditions noted are these: 48 hours, fold change over baseline; for fold induction at 0.3 µM: inhibitor 0.3 μM; for fold induction at 0.3 µM / fold induction at 3 µM: Table 13-1; for fold induction at 1 µM: inhibitor 1 μM; for fold induction at 3 µM: inhibitor 3 μM.

Where [7] appears, read: anti-CD3/anti-CD28 co-stimulation.
Setting [8] is: anti-CD3/anti-CD28 co-stimulation, Table 9-1, read-out: CD25 staining CD3/CD28 1 μM.
Where [9] appears, read: anti-CD3 alone, Table 9-1, read-out: CD25 staining CD3 1 μM.
Where [10] appears, read: anti-CD3/anti-CD28 co-stimulation, Table 9-1, read-out: IL-2 secretion CD3/CD28 1 μM.
The mark [11] stands for this setting: anti-CD3 alone, Table 9-1, read-out: IL-2 secretion CD3 1 μM.
Where [12] appears, read: anti-CD3/anti-CD28 co-stimulation, Table 13-1, read-out: CD25 staining CD3/CD28 1 μM.
Where [13] appears, read: anti-CD3 alone, Table 13-1, read-out: CD25 staining CD3 1 μM.
[14] abbreviates: anti-CD3/anti-CD28 co-stimulation, Table 13-1, read-out: IL-2 secretion CD3/CD28 1 μM.
Where [15] appears, read: anti-CD3 alone, Table 13-1, read-out: IL-2 secretion CD3 1 μM.

T1 sequence (Q13191 36-427): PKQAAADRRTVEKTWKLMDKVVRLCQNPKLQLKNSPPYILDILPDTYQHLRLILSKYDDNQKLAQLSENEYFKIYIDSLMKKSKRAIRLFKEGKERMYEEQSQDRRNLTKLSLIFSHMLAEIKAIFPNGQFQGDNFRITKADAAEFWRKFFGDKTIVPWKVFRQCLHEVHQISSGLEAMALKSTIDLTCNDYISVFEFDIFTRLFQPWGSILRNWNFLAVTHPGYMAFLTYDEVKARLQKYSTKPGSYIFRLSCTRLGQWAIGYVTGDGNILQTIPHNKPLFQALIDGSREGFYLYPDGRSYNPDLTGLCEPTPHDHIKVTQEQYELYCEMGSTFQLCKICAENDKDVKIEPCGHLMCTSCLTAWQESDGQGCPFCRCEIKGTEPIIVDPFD

On to `Cn1cnnc1CC1(c2cccc(N3Cc4c(cc(CN5CCC6(CC6)C5)cc4C(F)(F)F)C3=O)c2)COC1` [Compound 59], for which the IC50 on Cbl-b [1] and on Cbl-b [4] was 1 to 5 nM in each case. In addition, the fold induction at 0.3 µM was 1.25 to 1.39 in experiment [2] (setting [7]), more than 15 in experiment [3] (setting [7]), 1.25 to 1.39 in experiment [5] (setting [7]) and more than 15 in experiment [6] (setting [7]). The fold induction at 1 µM in experiment [2] (setting [8]) is more than 1.39; in experiment [2] (setting [9]), more than 1.14; in experiment [3] (setting [10]), more than 15; in experiment [3] (setting [11]), less than 0.33; in experiment [5] (setting [12]), more than 1.39; in experiment [5] (setting [13]), more than 1.14. Moreover, the fold induction at 1 µM is more than 15 in experiment [6] (setting [14]) and less than 0.33 in experiment [6] (setting [15]). The fold induction at 3 µM in experiment [2] (anti-CD3 alone) was more than 1.14; in experiment [3] (anti-CD3 alone), 0.34 to 0.66; in experiment [5] (anti-CD3 alone) it was more than 1.14; in experiment [6] (anti-CD3 alone) it was 0.34 to 0.66.
For the compound `C[C@@H](c1cc2c(c(C(F)(F)F)c1)CN(c1cccc(C3(Cc4nncn4C)COC3)c1)C2=O)N1CC[C@H](F)C1` [Compound 55], the 50% inhibitory concentration (IC50) at Cbl-b [1] and at Cbl-b [4] was 1 to 5 nM in each case. Moreover, the fold induction at 0.3 µM is more than 1.39 in experiment [2] (setting [7]), more than 15 in experiment [3] (setting [7]), more than 1.39 in experiment [5] (setting [7]) and more than 15 in experiment [6] (setting [7]). In addition, the fold induction at 1 µM in experiment [2] (setting [8]) was more than 1.39; in experiment [2] (setting [9]) it was more than 1.14; in experiment [3] (setting [10]) it was more than 15; in experiment [3] (setting [11]), 0.34 to 0.66; in experiment [5] (setting [12]) it was more than 1.39; in experiment [5] (setting [13]), more than 1.14. Further, the fold induction at 1 µM in experiment [6] (setting [14]) is more than 15; in experiment [6] (setting [15]), 0.34 to 0.66. The fold induction at 3 µM in experiment [2] (anti-CD3 alone) was more than 1.14; in experiment [3] (anti-CD3 alone), 0.34 to 0.66; in experiment [5] (anti-CD3 alone), more than 1.14; in experiment [6] (anti-CD3 alone), 0.34 to 0.66.
With `C[C@H](c1cc2c(c(C(F)(F)F)c1)CN(c1cccc(C3(Cc4nncn4C)COC3)c1)C2=O)N1CC[C@H](F)C1` [Compound 56], the IC50 on Cbl-b [1] and at Cbl-b [4] was more than 5 nM each time. The fold induction at 0.3 µM in experiment [2] (setting [7]) is 1.25 to 1.39; in experiment [3] (setting [7]), 10 to 15; in experiment [5] (setting [7]) it was 1.25 to 1.39; in experiment [6] (setting [7]), 11 to 15. For the same compound, the fold induction at 1 µM is more than 1.39 in experiment [2] (setting [8]); more than 1.14 in experiment [2] (setting [9]); 10 to 15 in experiment [3] (setting [10]); less than 0.33 in experiment [3] (setting [11]); more than 1.39 in experiment [5] (setting [12]); more than 1.14 in experiment [5] (setting [13]). Moreover, the fold induction at 1 µM in experiment [6] (setting [14]) is 11 to 15; in experiment [6] (setting [15]), less than 0.33.

(Values after patent US11464802B2, “3-substituted piperidine compounds for Cbl-b inhibition, and use thereof” (Nurix Therapeutics, Inc., priority 2019, dated 2022).)
